{"source": "patent EP0354522A1", "about": "“Use of alpha-aminoboronic acid derivatives in prevention and treatement of viral diseases” (HOECHST AKTIENGESELLSCHAFT, priority 1988, dated 1990)", "biological_target": "T1, HIV-Protease (Human immunodeficiency virus type 1 group M subtype B, UniProt P04585)", "T1 construct": "Max-Planck-Institut für Molekulare Genetik, Berlin", "assay": "HIV protease test (cleavage of heptapeptide Ser-Phe-Asn-Phe-Pro-Gln-Ile, HPLC quantification of Ser-Phe-Asn-Phe)", "assay_type": "biochemical", "settings": "2 h, 37°C; for activity at 100 µM / Restakt. bei 10^-4 M: residual enzyme activity at 10^-4 M inhibitor, 100 % = mean of runs without inhibitor, pH ca. 6,0, 1 % DMSO; for activity at 100 µM: read-out: Restakt. bei 10^-4 M; for IC50: cloned HIV protease, pH ca. 6,0; for Restakt. bei 10^-4 M: 100 µM", "from_the_text": "Als synthetisches Substrat ist ein Heptapeptid der Sequenz Ser-Phe-Asn-Phe-Pro-Gln-Ile geeignet. Diese Sequenz tritt im natürlichen Substrat der Protease auf und liefert bei der autokatalytischen Freisetzung nach einer Phe-Pro-Spaltung den N-terminalen Beginn der Proteasesequenz (Pro-Gln-Ile...).\nEs wird eine klonierte HIV-Protease (Max-Planck-Institut für Molekulare Genetik, Berlin) benutzt. [drawing 5]\nVon den Reaktionsprodukten wird Ser-Phe-Asn-Phe zur Abtrennung und quantitativen Bestimmung mittels HPLC herangezogen.\nNach 2 Stunden bei 37°C werden die Ansätze mit 225 µl HPLC-Elutionsmittel (s.u.) gestoppt. Etwa 150 µl des zentrifugierten Überstands (Eppendorf-Zentrifuge) werden in Mikrovials gefüllt. Das Injektionsvolumen für die HPLC-Trennung beträgt 20 µl. Ser-Phe-Asn-Phe wird durch Vergleich mit einem externen Standard bekannter Konzentration (0,5 µg/ 20 µl) quantitativ bestimmt und stellt die Meßgröße der Enzymaktivität (µg Tetrapeptid pro 20 µl Meßprobe) dar. Bezugswert (= 100 % Enzymaktivität) ist der Mittelwert aus 2 oder mehr Ansätzen ohne Inhibitor. Als Standard-Inhibitor wird Pepstatin A (10⁻⁴ oder 10⁻⁵ M) verwendet.\n• a) Substratlösung: 2 mg Ser-Phe-Asn-Phe-Pro-Gln-Ile werden in 1 ml MGTE 15-Puffer gelöst. • b) Testsubstanzen: Diese werden 10⁻² oder 10⁻³ M in Dimethylsulfoxid (DMSO) gelöst und 1 : 40 mit MGTE 15-Puffer verdünnt; 10 µl dieser Lösung werden pro Ansatz verwendet; die Endkonzentration des Präparates beträgt 10⁻⁴ bzw. 10⁻⁵ M; die DMSO-Konzentration in allen Testansätzen ist 1 %. Für IC₅₀-Bestimmungen wird das Präparat, ausgehend von 10⁻² M, mit 100 % DMSO in der geeigneten Weise verdünnt. • c) Proteaselösung: Das Enzym wird mit MGTE 25-Puffer auf eine geeignete Konzentration verdünnt. • d) MGTE 15/25-Puffer 20 mM Morpholinoethansulfonsäure (MES) 15 (25) % (w/v) Glyzerin 0,1 % (v/v) Triton® X 100 (vgl. Merck Index 10, 6601) 5 mM EDTA 0,5 M NaCl 1 mM Dithiothreit (nur für MGTE 25) 1 mM Phenylmethylsulfonylfluorid (PMSF) Der pH-Wert soll ca. 6,0 betragen. • e) HPLC-Elutionsmittel: Eine 0,1 M Phosphorsäure-Lösung wird mit Triethylamin auf pH 2,5 eingestellt. Aus dieser Lösung wird ein Phosphorsäure-Acetonitril-Gemisch mit 22,6 Gewichts-Prozent Acetonitril hergestellt.\nSäule: Radial Pak LC Cartridge, 8 mm/C18, 5 µ (der Fa. Waters, USA). Fluß: 1 ml/min Detektoreinstellung: 215 nm, 0,08 AU Zeit pro Analyse: 12 min; Retentionszeiten: Heptapeptid ca. 9,5 min, Tetrapeptid ca. 5,2 min Laufmittel: 77,4 Gew.-% 0,1 M H₃PO₄/pH 2,5 22,6 Gew.-% Acetonitril"}
{"compound": "CCC[C@H](NC(=O)C(Cc1ccccc1)CS(=O)(=O)C(C)(C)C)C(=O)NC(B1OC(C)(C)C(C)(C)O1)C(C)CC", "note": "(stereo partly shown) [Beispiel 50, (2-Benzyl,3-t-butylsulfonyl)propionyl-Nva-[2-Methyl,1-(4,4,5,5-tetramethyl-1,3,2-dioxaborolan-2-yl)]butylamid]", "values": [{"measurement": "activity at 100 µM", "value": 53, "unit": "%"}]}
{"compound": "CC(C)[C@H](NC(=O)C(Cc1cccc2ccccc12)CS(=O)(=O)C(C)(C)C)C(=O)NC(CC1CCCCC1)B1OC(C)(C)C(C)(C)O1", "note": "(stereo partly shown) [Beispiel 51, [3-t-Butylsulfonyl, 2-(1-naphthylmethyl)]propionyl-Val-[cyclohexylmethyl,(4,4,5,5-tetramethyl-1,3,2-dioxaborolan-2-yl)]methylamid]", "values": [{"measurement": "IC50", "value": 5, "unit": "µM"}, {"measurement": "activity at 100 µM", "value": 5, "unit": "%"}]}
{"compound": "CC1(C)OB(C(CC2CCCCC2)NC(=O)[C@H](CC(N)=O)NC(=O)C(Cc2cccs2)CS(=O)(=O)C(C)(C)C)OC1(C)C", "note": "(stereo partly shown) [Beispiel 52, [3-t-Butylsulfonyl, 2-(2-thienylmethyl)]propionyl-Asn-[cyclohexylmethyl,(4,4,5,5-tetramethyl-1,3,2-dioxaborolan-2-yl)]-methylamid]", "values": [{"measurement": "IC50", "value": 100, "unit": "µM"}, {"measurement": "activity at 100 µM", "value": 49, "unit": "%"}]}
{"compound": "CC1(C)OB(C(CC2CCCCC2)NC(=O)[C@H](CC(N)=O)NC(=O)C(Cc2cccc3ccccc23)CS(=O)(=O)C(C)(C)C)OC1(C)C", "note": "(stereo partly shown) [Beispiel 53, [3-t-Butylsulfonyl,2-(1-naphthylmethyl)]propionyl-Asn-[cyclohexylmethyl,(4,4,5,5-tetramethyl-1,3,2-dioxaborolan-2-yl)]methylamid]", "values": [{"measurement": "IC50", "value": 10, "unit": "µM"}, {"measurement": "activity at 100 µM", "value": 10, "unit": "%"}]}
{"compound": "(2-Benzyl,3-t-butylsulfonyl)propionyl-Nva-(Cyclopentylmethyl,dihydroxyboryl)methylamid [Beispiel 32]", "values": [{"measurement": "IC50", "value": 40, "unit": "µM"}, {"measurement": "Restakt. bei 10^-4 M", "value": 25, "unit": "%"}]}
{"compound": "(2-Benzyl,3-t-butylsulfonyl)propionyl-Val-(Cyclohexylmethyl,dihydroxyboryl)methylamid [Beispiel 28]", "values": [{"measurement": "IC50", "value": 7, "unit": "µM"}, {"measurement": "Restakt. bei 10^-4 M", "value": 7, "unit": "%"}]}
{"compound": "(3-t-Butylsulfonyl)propionyl-Nva-(1-Naphthylmethyl, dihydroxyboryl)methylamid [Beispiel 27]", "values": [{"measurement": "Restakt. bei 10^-4 M", "value": 77, "unit": "%"}]}
{"compound": "Iva-Phe-His-(Cyclooctylmethyl,dihydroxyboryl)methylamid [Beispiel 24]", "values": [{"measurement": "Restakt. bei 10^-4 M", "value": 78, "unit": "%"}]}
{"compound": "Iva-Phe-Nva-(Cyclohexylmethyl,dihydroxyboryl)methylamid [Beispiel 5]", "values": [{"measurement": "IC50", "value": 70, "unit": "µM"}, {"measurement": "Restakt. bei 10^-4 M", "value": 38, "unit": "%"}]}
{"compound": "Iva-Phe-Nva-(Cyclooctylmethyl,dihydroxyboryl)methylamid [Beispiel 20]", "values": [{"measurement": "Restakt. bei 10^-4 M", "value": 27, "unit": "%"}]}
{"compound": "Iva-Phe-Nva-[Cyclohexylmethyl,[(N-B)-(2,2′-iminodiethanolato)-boryl]]methylamid [Beispiel 6]", "values": [{"measurement": "Restakt. bei 10^-4 M", "value": 41, "unit": "%"}]}
{"compound": "Iva-Phe-Nva-[Cycloundecylmethyl, (4,4,5,5-tetramethyl-1,3,2-dioxaborolan-2-yl)]methylamid [Beispiel 13]", "values": [{"measurement": "Restakt. bei 10^-4 M", "value": 35, "unit": "%"}]}
{"compound": "Iva-Thi-His-(Cyclohexylmethyl,dihydroxyboryl)methylamid [Beispiel 9]", "values": [{"measurement": "Restakt. bei 10^-4 M", "value": 93, "unit": "%"}]}
{"compound": "[3-t-Butylsulfonyl,2,(2-thienylmethyl)]propionyl-Thi-(Cyclohexylmethyl,dihydroxyboryl)methylamid [Beispiel 31]", "values": [{"measurement": "Restakt. bei 10^-4 M", "value": 59, "unit": "%"}]}
{"compound": "[3-t-Butylsulfonyl,2-(2-thienylmethyl)]propionyl-Nva-(Cyclohexylmethyl,dihydroxyboryl)methylamid [Beispiel 30]", "values": [{"measurement": "Restakt. bei 10^-4 M", "value": 52, "unit": "%"}]}
{"compound": "[3-t-Butylsulfonyl,2-(2-thienylmethyl)]propionyl-Thi-(Cycloheptylmethyl,dihydroxyboryl)methylamid [Beispiel 33]", "values": [{"measurement": "Restakt. bei 10^-4 M", "value": 61, "unit": "%"}]}
